Columns and labels:
N=C(N)N = assay: purified protein, by the assay type; conditions: other: Gdx-pPro, pH 7.5, mean ± SEM
Gdx-Clo = biological target: T1, Gdx-Clo (Clostridiales bacterium oral taxon 876, UniProt U2EQ00); assay: SSM electrophysiology of Gdx-Clo proteoliposomes; assay type: biochemical, Clostridales oral taxon 876; conditions: 2 mM substrate
T1 sequence (U2EQ00 1-105): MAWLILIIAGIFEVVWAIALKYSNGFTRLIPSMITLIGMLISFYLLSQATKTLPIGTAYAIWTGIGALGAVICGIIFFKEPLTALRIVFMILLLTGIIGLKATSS
Protocol: (§1) Gdx-Clo ([Kermani et al., 2018]), Gdx-Eco ([Kermani et al., 2018]), EmrE ([Kermani et al., 2022]), and Gdx-pAmi ([Martinez-Vaz et al., 2022]) construct design and purification have been described previously. […] Proteins were overexpressed in C41(DE3). Expression was induced by the addition of 0.2 mM IPTG for 3 h. Cells were lysed and extracted with 2% n-decyl-β-D-maltoside (DM) for 2 h. After pelleting insoluble cell debris, proteins were purified using cobalt affinity resin. Wash buffer contained 25 mM Tris, pH 8.5, 150 mM NaCl, and 5 mM DM. For Gdx-pAmi, NaCl concentration was increased to 500 mM NaCl. The affinity column was washed with wash buffer, then wash buffer with 10 mM imidazole, prior to elution with wash buffer with 400 mM imidazole. For Gdx-Clo and Gdx-Eco, histidine tags were cleaved with LysC (200 ng/mg of protein; 2 h at room temperature; New England Biolabs), and for all others, histidine tags were cleaved with thrombin (1 U/mg of protein, overnight at room temperature; MilliporeSigma). Proteins were further purified using a gel filtration Superdex200 column (Cytiva) equilibrated with 100 mM NaCl, 10 mM N-2-hydroxyethylpiperazine-N′-2-ethanesulfonic acid (HEPES), pH 7.5, and 5 mM DM. Purified proteins were stored at 4°C for up to 5 days before detergent binding assays. To prepare proteoliposomes for electrophysiology assays, purified protein was mixed with E. coli polar lipid extract (10 mg/ml; Avanti Polar Lipids) solubilized with 35 mM 3-[(3-cholamidopropyl)dimethylammonio]-1-propanesulfonate (CHAPS) at a protein to lipid ratio of 40 μg SMR transporter: mg lipid (1:370 protein:lipid molar ratio) prior to detergent removal by dialysis. For preparations that included Fluc-Bpe, liposomes were reconstituted with a molar ratio of 0.3 Fluc-Bpe:1 SMRGdx: 5920 lipid (1 μg Fluc-Bpe and ∼2.5 μg SMRGdx per mg lipid). For liposome transport assays, proteoliposomes were prepared similarly, except that a 2:1 mixture of 1-palmitoyl, 2-oleoylphosphatidylethanolamine (POPE) and 1-palmitoyl, 2-oleoylphosphatidylglycerol (POPG) (10 mg/ml; Avanti Polar Lipids) was used with 0.2 μg protein/mg lipid. Proteoliposomes were stored at −80°C until use.
(§2) SSM experiments were performed using SURFE^2R N1 instrument (Nanion Technologies). Sensors were prepared with a 1,2-diphytanoyl-sn-glycero-3-phosphocholine (DPhPC) lipid monolayer according to published protocols ([Bazzone et al., 2017]). Each sensor’s capacitance and conductance were verified before use (<80 nF capacitance, <50 nS conductance) using Nanion software protocols. Proteoliposome stock was diluted 1:25 in assay buffer (100 mM KCl, 100 mM KPO4, pH 7.5) prior to adsorption to the DPhPC monolayer. For substrate screening experiments, reference substrate samples (Gdm^+ for SMRGdx, and TPA^+ for SMRQac) were checked periodically to test for the stability of the sensor; if the current amplitude of the reference compound differed by >10% on one sensor, it indicated the desorption of liposomes, and the sensor was not used for further experiments. For every SSM electrophysiology experiment, we used the same general solution exchange protocol: after 2 s perfusion with a non-activating solution, we perfused substrate-containing buffer for 2 s and then returned to the equilibrium condition with a 4 s perfusion of non-activating buffer. For experiments with the S104C/A70C crosslinked variant, reducing conditions were established by the addition of 2.5 mM tris(2-carboxyethyl)phosphine (TCEP) to the activating and non-activating buffers.
(§3) We screened a series of metformin metabolites for transport using SSM electrophysiology (Fig. 2, A and B).

Gdx-Eco = Gdx-Eco (Escherichia coli, UniProt P69937); assay: SSM electrophysiology of Gdx-Eco proteoliposomes; assay type: biochemical; conditions: 2 mM substrate
Protocol: as §1, §2, §3

Gdx-pAmi = assay: SSM electrophysiology of Gdx-pAmi proteoliposomes; assay type: biochemical, Aminobacter sp. MET; conditions: 2 mM substrate
Protocol: as §1, §2, §3

Gdx-pPro = Gdx-pPro (Citrobacter freundii, UniProt O69279); conditions: 2 mM substrate
Gdx-pPro, sequence (O69279 2-105): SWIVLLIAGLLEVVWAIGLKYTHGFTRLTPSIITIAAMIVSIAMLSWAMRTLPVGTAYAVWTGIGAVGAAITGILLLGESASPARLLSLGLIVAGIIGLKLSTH

Gdx-Eco, sequence (P69937 whole entry): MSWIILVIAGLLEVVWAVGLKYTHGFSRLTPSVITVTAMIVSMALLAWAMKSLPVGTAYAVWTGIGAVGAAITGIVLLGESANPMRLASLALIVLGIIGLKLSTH

Compound | Km (N=C(N)N) [µM] | Transport currents in substrate screen (Gdx-Clo) | Transport currents in substrate screen (Gdx-Eco) | Transport currents in substrate screen (Gdx-pAmi) | Transport currents in substrate screen (Gdx-pPro)
Gdx-pPro (Citrobacter freundii) | 2900 ± 500 |  |  |  | 
CN(C)C(=N)N=C(N)N [Metformin, metformin] |  | currents barely above the detectable limit | currents barely above the detectable limit | currents barely above the detectable limit | currents barely above the detectable limit
CCCCNC(=N)NC(=N)N [buformin] |  |  | transported | transported | transported
CNC(=N)NC(=N)N [methylbiguanide] |  |  | transported | transported | transported

From article PMC10829512, “Transport of metformin metabolites by guanidinium exporters of the small multidrug resistance family” (The Journal of General Physiology, 2024)
